Experimental data as given in US20250381165A1, “Method of Use for Benzofuran Compounds” (Tampa Bay Research Institute, Inc., priority 2024, published 2025).

Key:
[1] = molecular target: T1, MHCI/SIINFEKL complex on DC2.4 (Mus musculus, UniProt P01901); assay: Displacement of SIINFEKL from DC2.4 after peptide pulse; assay type: cell-based, murine; details: 25 μg/mL BzFβ after 1 h pulse 30 nM SIINFEKL; p<0.0001
T1 construct: DC2.4 are a C57Bl/6 lineage murine cell line and as such they express MHC class I H-2Kb and H-2Db; endogenous in cells; host or cells: DC2.4 (murine dendritic cell line, from Dr. Kenneth Rock)
T1 sequence (P01901 22-369): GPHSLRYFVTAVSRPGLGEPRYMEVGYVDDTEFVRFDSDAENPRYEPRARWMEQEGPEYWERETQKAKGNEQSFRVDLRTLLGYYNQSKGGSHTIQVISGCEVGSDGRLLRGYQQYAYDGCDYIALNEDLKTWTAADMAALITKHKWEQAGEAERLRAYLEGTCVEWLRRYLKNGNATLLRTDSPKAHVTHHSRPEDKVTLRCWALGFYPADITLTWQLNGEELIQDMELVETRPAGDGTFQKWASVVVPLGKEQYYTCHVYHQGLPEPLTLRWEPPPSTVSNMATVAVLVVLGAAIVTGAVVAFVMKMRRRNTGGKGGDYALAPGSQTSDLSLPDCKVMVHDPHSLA
T1 sequence (P01887 21-119 partner): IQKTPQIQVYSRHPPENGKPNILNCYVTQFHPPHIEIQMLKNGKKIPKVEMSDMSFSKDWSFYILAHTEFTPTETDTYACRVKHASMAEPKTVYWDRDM

[2] = Detection of BzFβ in serum by HPLC; assay type: in vivo, C57BL/6NCrl mice
Procedure: Six- to ten-week-old male and female C57BL/6NCrl mice (Charles River Laboratories, Wilmington MA; cat. no. 027) were used for all animal studies. The mice were maintained in accord with the NIH Guide for the Care and Use of Laboratory Animals. Experimental procedures were performed in accord with research protocols approved by the Tampa Bay Research Institute's Institutional Animal Care and Use Committee. Mice were maintained in an INOVIVE individually ventilated cage system with 3 mice per cage containing 100% virgin wood pulp bedding (Harlan Teklad™, Harlan Sprague Dawley Inc., Indianapolis, IA; cat. no. 7099). Water and food (Harlan Teklad™, cat. no. 8640) were available ad libitum. The mice were maintained on a cycle of 12 h of light and 12 h of dark in an environment with a temperature of 74-76° […]. and 40-60% humidity. All cages underwent 40 air changes hourly in the negative pressure mode, in accordance with manufacturer's recommendations. Both the intake and exhaust air from the system were filtered through HEPA filters to maintain a clean environment. Stock solutions of BzFβ were solubilized in alkaline water (pH 10) and then sterile filtered through 0.22 µm syringe filters. BzFβ used for iv or im injections was diluted in 0.9% saline (normal saline). The stock solutions of the SIINFEKL peptide were prepared in 1× calcium/magnesium free Dulbecco's phosphate-buffered saline (DPBS; ThermoFisher Scientific, cat. no. 14190144).
After overnight fasting, six-to ten-week-old mice were gavaged with 1-2 mg of BzFβ solubilized in 200 μL alkaline water or were injected intramuscular (IM) or intravenous with 100 μg diluted in normal saline. After various times mice were anesthetized using 2.0% isoflurane with O2 at 1 L/min, and 200-500 μL of blood was collected in a microfuge tube containing 700 μL of 50 mM EDTA in DPBS as an anticoagulant. The blood samples were centrifuged at 4500×g for 20 min to separate the plasma from the cells. The resulting plasma (200 μL) was removed and extracted with 4 mL methanol. This mixture was vortexed for 30 s and centrifuged at 4000×g for 10 min at 4° C. The supernatant was collected and dried using a SpeedVac (SC210 Å) under a vacuum of 0.4 torr at 65° C. When dry, the sample was removed and resuspended in 100 μL methanol and then re-centrifuged to remove any precipitates. A 20 μL sample of this mixture was analyzed by HPLC.
BzFβ was detected in the serum using a Shimadzu high performance liquid chromatography (HPLC) system. The Shimadzu system consisted of two LC-20AR pumps, a SPD-M20A diode array UV-Vis detector, and a 20 μL injection loop onto a Phenomenex Luna […] Analytical PFP column 100 A (cat. no. OOF-4448-E0). Analysis and data collection were conducted using Shimadzu LabSolutions software. Samples ([…]) were injected onto the column and separated using a gradient of acetonitrile (ACN) and water as the mobile phase. The gradient started with 10% ACN and increased stepwise to 80% ACN for peak clarity. Buffer B was water adjusted to pH 2.5 using phosphoric acid. The column was kept at a constant temperature of 30° C. (Chai, et al., Comprehensive study of the intestinal absorption of four phenolic compounds after oral administration of Ananas comosus leaf extract in vivo and in vitro. Afr J Pharm Pharmacol. 2013 Jul. 15; 7(26):1781-92).
Following up on the prediction that BzFβ should be able to be absorbed through the GI tract and gain access to the systemic circulation, C57Bl/6crl mice were gavaged (po) with either 200 μL of alkaline water (negative control) or with 2 mg of BzFβ solubilized in 200 μL alkaline water. Fifteen minutes later, peripheral blood was obtained. The serum was extracted with methanol, lyophilized, and then examined by HPLC for the presence of BzFβ. […] BzFβ was then administered to another group of mice iv (100 μg), im ([…]), and po (1 mg). After 15 min, the serum was collected, extracted with methanol, and then analyzed by HPLC. […]

In the case of `O=C(O)/C=C/c1ccc2occc2c1` [BzFβ, (2E)-3-(1-benzofuran-5-yl)prop-2-enoic acid], the “MHCI/SIINFEKL complex staining versus untreated cells” value [1] is reported as “significantly reduced”, the persistence in serum ([2]; 1, 2 and 3 h post im injection of 1 mg) is reported as “still detectable” and the “stability in vivo compared with dipeptides” value ([2]; GI tract and bloodstream) is reported as “much more stable in the GI tract and bloodstream”. For the same compound, the “presence in serum by HPLC” value ([2]; iv (100 μg), im (100 g), po (1 mg), 15 min) was “presence of the appropriate peak”, the “earliest detection in blood plasma” value ([2]; oral administration) was 30 min and the “latest detection in blood plasma” value ([2]; oral administration) was 3 h. The “presence in serum by HPLC” value ([2]; po 2 mg, fifteen minutes) was “revealed the presence of BzFβ”.
